#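 Each compound was tested at five concentrations against cells in 96-well plates for 48 hours. Abbreviation: GI50, concentration required for 50% inhibition of growth.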 Activity calls are given as the source filed them. No stated cut-off is given here; in the data, active = GI50 up to about 1.1 µM and inactive = higher.
# Columns and labels:
# Experiment in all cases: NCI-60 cell line screen, 48 h
# CAKI-1 = tested on: CAKI-1
# DLD-1 = tested on: DLD-1
# OVCAR-8 = tested on: OVCAR-8
# RXF 393 = tested on: RXF 393
# NCI/ADR-RES = tested on: NCI/ADR-RES
# HCC 2998 = tested on: HCC 2998
# KM12 = tested on: KM12
# RPMI-8226 = tested on: RPMI-8226
# EKVX = tested on: EKVX
# SK-MEL-2 = tested on: SK-MEL-2
# NCI-H23 = tested on: NCI-H23
# HL-60 = tested on: HL-60
# MCF7 = tested on: MCF7
# HOP-62 = tested on: HOP-62
# HCT-116 = tested on: HCT-116
# DMS-273 = tested on: DMS-273
# Malme-3M = tested on: Malme-3M
# NCI-H522 = tested on: NCI-H522
# HT-29 = tested on: HT-29
# NCI-H460 = tested on: NCI-H460
# HCT-15 = tested on: HCT-15
# MOLT-4 = tested on: MOLT-4
# SF-295 = tested on: SF-295
# SNB-19 = tested on: SNB-19
# NCI-H226 = tested on: NCI-H226
# SW-620 = tested on: SW-620
# SK-OV-3 = tested on: SK-OV-3
# LOX IMVI = tested on: LOX IMVI
# U-251 = tested on: U-251
# OVCAR-4 = tested on: OVCAR-4
# SF-268 = tested on: SF-268
# OVCAR-5 = tested on: OVCAR-5
# M19-MEL = tested on: M19-MEL
# OVCAR-3 = tested on: OVCAR-3
# HOP-18 = tested on: HOP-18
# SNB-78 = tested on: SNB-78
# K562 = tested on: K562
# KM-20L2 = tested on: KM-20L2
# UACC-62 = tested on: UACC-62
# COLO 205 = tested on: COLO 205
# UACC-257 = tested on: UACC-257
# CCRF-CEM = tested on: CCRF-CEM
# HOP-92 = tested on: HOP-92
# SK-MEL-5 = tested on: SK-MEL-5
# UO-31 = tested on: UO-31
# SF-539 = tested on: SF-539
# IGROV-1 = tested on: IGROV-1
# DMS-114 = tested on: DMS-114
# A549 = tested on: A549
# SK-MEL-28 = tested on: SK-MEL-28
# A498 = tested on: A498
# SNB-75 = tested on: SNB-75
# SN12C = tested on: SN12C
# LXFL 529 = tested on: LXFL 529
# BT-549 = tested on: BT-549
# PC-3 = tested on: PC-3
# TK-10 = tested on: TK-10
# MDA-N = tested on: MDA-N
# ACHN = tested on: ACHN
# M14 = tested on: M14
# DU-145 = tested on: DU-145
# T47D = tested on: T47D
# SR = tested on: SR
# 786-0 = tested on: 786-0
# MDA-MB-231 = tested on: MDA-MB-231
structure (smiles),measurement,setting,value
COc1cc2c(cc1OC)-c1c3c(cc4c1[C@@H](C2)N(C)CC4)OCO3,GI50,CAKI-1,6.01 µM (inactive)
same,GI50,DLD-1,6 µM (inactive)
same,GI50,OVCAR-8,4.59 µM (inactive)
same,GI50,RXF 393,8.04 µM (inactive)
same,GI50,NCI/ADR-RES,5.62 µM (inactive)
same,GI50,HCC 2998,9.35 µM (inactive)
same,GI50,KM12,7.4 µM (inactive)
same,GI50,RPMI-8226,5.74 µM (inactive)
same,GI50,EKVX,11.4 µM (inactive)
same,GI50,SK-MEL-2,10.9 µM (inactive)
same,GI50,NCI-H23,10.2 µM (inactive)
same,GI50,HL-60,7.26 µM (inactive)
same,GI50,MCF7,1.94 µM (inactive)
same,GI50,HOP-62,3.57 µM (inactive)
same,GI50,HCT-116,2.87 µM (inactive)
same,GI50,DMS-273,3.52 µM (inactive)
same,GI50,Malme-3M,9.14 µM (inactive)
same,GI50,NCI-H522,6.7 µM (inactive)
same,GI50,HT-29,6.4 µM (inactive)
same,GI50,NCI-H460,2.53 µM (inactive)
same,GI50,HCT-15,5.77 µM
same,GI50,MOLT-4,3.85 µM (inactive)
same,GI50,SF-295,1.64 µM (inactive)
same,GI50,SNB-19,5.74 µM (inactive)
same,GI50,NCI-H226,7.06 µM (inactive)
same,GI50,SW-620,3.92 µM (inactive)
same,GI50,SK-OV-3,12.1 µM (inactive)
same,GI50,LOX IMVI,3.78 µM (inactive)
same,GI50,U-251,10.8 µM (inactive)
same,GI50,OVCAR-4,8.26 µM (inactive)
same,GI50,SF-268,7.69 µM (inactive)
same,GI50,OVCAR-5,9.64 µM (inactive)
same,GI50,M19-MEL,10.4 µM (inactive)
same,GI50,OVCAR-3,13.6 µM (inactive)
same,GI50,HOP-18,18.2 µM (inactive)
same,GI50,SNB-78,11.6 µM (inactive)
same,GI50,K562,5.36 µM (inactive)
same,GI50,KM-20L2,3.44 µM (inactive)
same,GI50,UACC-62,8.38 µM (inactive)
same,GI50,COLO 205,4.23 µM (inactive)
same,GI50,UACC-257,11.6 µM (inactive)
same,GI50,CCRF-CEM,3.96 µM (inactive)
same,GI50,HOP-92,6.78 µM (inactive)
same,GI50,SK-MEL-5,7.52 µM (inactive)
same,GI50,UO-31,11.8 µM (inactive)
same,GI50,SF-539,5.94 µM (inactive)
same,GI50,IGROV-1,9.62 µM (inactive)
same,GI50,DMS-114,8.43 µM (inactive)
same,GI50,A549,3.34 µM (inactive)
same,GI50,SK-MEL-28,12.2 µM (inactive)
same,GI50,A498,4.69 µM (inactive)
same,GI50,SNB-75,7.29 µM (inactive)
same,GI50,SN12C,6.14 µM (inactive)
CC1=NN(C(=O)c2ccccc2O)C(=O)/C1=C/c1ccc(O)cc1,GI50,CAKI-1,0.662 µM (active)
same,GI50,LXFL 529,0.141 µM (active)
same,GI50,DLD-1,0.151 µM (active)
same,GI50,OVCAR-8,0.358 µM (active)
same,GI50,RXF 393,0.0601 µM (active)
same,GI50,NCI/ADR-RES,0.519 µM (active)
same,GI50,BT-549,0.279 µM (active)
same,GI50,HCC 2998,3.22 µM (inactive)
same,GI50,KM12,0.298 µM (active)
same,GI50,RPMI-8226,0.312 µM (active)
same,GI50,EKVX,1.81 µM (inactive)
same,GI50,SK-MEL-2,2.13 µM (inactive)
same,GI50,NCI-H23,0.568 µM (active)
same,GI50,HL-60,1.02 µM (active)
same,GI50,PC-3,0.368 µM (active)
same,GI50,MCF7,0.382 µM (active)
same,GI50,HOP-62,0.662 µM (active)
same,GI50,HCT-116,0.209 µM (active)
same,GI50,TK-10,13 µM (inactive)
same,GI50,Malme-3M,0.431 µM (active)
same,GI50,NCI-H522,0.807 µM (active)
same,GI50,HT-29,26.9 µM (inactive)
same,GI50,NCI-H460,0.255 µM (active)
same,GI50,HCT-15,0.485 µM
same,GI50,MOLT-4,0.711 µM (active)
same,GI50,SF-295,0.379 µM (active)
same,GI50,SNB-19,0.363 µM (active)
same,GI50,MDA-N,0.316 µM (active)
same,GI50,NCI-H226,0.475 µM (active)
same,GI50,ACHN,0.204 µM (active)
same,GI50,SW-620,2.73 µM (inactive)
same,GI50,SK-OV-3,0.26 µM (active)
same,GI50,LOX IMVI,0.468 µM (active)
same,GI50,U-251,0.205 µM (active)
same,GI50,OVCAR-4,1.48 µM (inactive)
same,GI50,SF-268,0.265 µM (active)
same,GI50,M14,0.351 µM (active)
same,GI50,OVCAR-5,7.96 µM (inactive)
same,GI50,DU-145,0.492 µM (active)
same,GI50,OVCAR-3,0.278 µM (active)
same,GI50,T47D,4.03 µM (inactive)
same,GI50,SNB-78,> 100 µM (inactive)
same,GI50,SR,0.485 µM (active)
same,GI50,K562,0.0667 µM (active)
same,GI50,KM-20L2,36.5 µM (inactive)
same,GI50,UACC-62,0.34 µM (active)
same,GI50,COLO 205,34.9 µM (inactive)
same,GI50,UACC-257,0.658 µM (active)
same,GI50,CCRF-CEM,1.47 µM (inactive)
same,GI50,HOP-92,0.218 µM (active)
same,GI50,SK-MEL-5,0.301 µM (active)
same,GI50,UO-31,0.153 µM (active)
same,GI50,SF-539,0.188 µM (active)
same,GI50,IGROV-1,0.14 µM (active)
same,GI50,DMS-114,0.348 µM (active)
same,GI50,A549,0.291 µM (active)
same,GI50,SK-MEL-28,52.2 µM (inactive)
same,GI50,A498,0.134 µM (active)
same,GI50,SNB-75,0.23 µM (active)
same,GI50,786-0,0.323 µM (active)
same,GI50,SN12C,1.62 µM (inactive)
same,GI50,MDA-MB-231,58.9 µM (inactive)
C=CCCCCC1CCC2CCC(CCCCC=C)N12 (stereo not drawn),GI50,CAKI-1,29.1 µM (inactive)
same,GI50,LXFL 529,14 µM (inactive)
same,GI50,OVCAR-8,17.7 µM (inactive)
same,GI50,HCC 2998,16.1 µM (inactive)
same,GI50,KM12,15.8 µM (inactive)
same,GI50,RPMI-8226,16.1 µM (inactive)
same,GI50,EKVX,> 10 µM (inactive)
same,GI50,SK-MEL-2,10.7 µM (inactive)
same,GI50,HL-60,14.5 µM (inactive)
same,GI50,HOP-62,16 µM (inactive)
same,GI50,HCT-116,14.2 µM (inactive)
same,GI50,TK-10,16.6 µM (inactive)
same,GI50,DMS-273,20 µM (inactive)
same,GI50,Malme-3M,15.8 µM (inactive)
same,GI50,NCI-H522,14.2 µM (inactive)
same,GI50,HT-29,9.38 µM (inactive)
same,GI50,NCI-H460,12.4 µM (inactive)
same,GI50,HCT-15,6.3 µM
same,GI50,MOLT-4,15 µM (inactive)
same,GI50,SF-295,13.4 µM (inactive)
same,GI50,SNB-19,19 µM (inactive)
same,GI50,NCI-H226,18.2 µM (inactive)
same,GI50,ACHN,14.6 µM (inactive)
same,GI50,SW-620,15.1 µM (inactive)
same,GI50,U-251,20 µM (inactive)
same,GI50,OVCAR-4,13 µM (inactive)
same,GI50,SF-268,14.7 µM (inactive)
same,GI50,M14,15.4 µM (inactive)
same,GI50,M19-MEL,20.4 µM (inactive)
same,GI50,OVCAR-3,15.1 µM (inactive)
same,GI50,HOP-18,21.3 µM (inactive)
same,GI50,SR,14.2 µM (inactive)
same,GI50,K562,12.1 µM (inactive)
same,GI50,KM-20L2,12.1 µM (inactive)
same,GI50,UACC-62,15.7 µM (inactive)
same,GI50,COLO 205,16.2 µM (inactive)
same,GI50,UACC-257,15.2 µM (inactive)
same,GI50,CCRF-CEM,11.6 µM (inactive)
same,GI50,HOP-92,10.3 µM (inactive)
same,GI50,SK-MEL-5,13.9 µM (inactive)
same,GI50,UO-31,13.2 µM (inactive)
same,GI50,SF-539,16.9 µM (inactive)
same,GI50,DMS-114,15.7 µM (inactive)
same,GI50,A549,16.1 µM (inactive)
same,GI50,SK-MEL-28,17.7 µM (inactive)
same,GI50,SNB-75,28.1 µM (inactive)
same,GI50,786-0,13.7 µM (inactive)
same,GI50,SN12C,15.7 µM (inactive)
